Measurements published in article PMC6172315, “Relative Selectivity of Plant Cardenolides for Na^+/K^+-ATPases From the Monarch Butterfly and Non-resistant Insects” (Frontiers in Plant Science, 2018).
“Also recorded” adds a separate entry of the source. Like-named read-outs stand apart in the source and are kept apart here.

Columns and labels:
Type in all cases: biochemical
E. core-Na^+/K^+-ATPase = E. core-Na^+/K^+-ATPase (Euploea core, UniProt A0A5C0C9F5); assay: In vitro inhibition assay of E. core Na+/K+-ATPase (phosphate release); conditions: for inhibition of E. core Na^+/K^+-ATPase compared to ouabain: EC, F-test comparison of entire dose-response curves with ouabain; for IC50: read-out: IC50 E. core- Na^+/K^+-ATPase, Na+/K+-ATPase extracted from butterfly brains
Procedure: (§1) Danaus plexippus was caught in the field or purchased; E. core and S. gregaria were obtained commercially, with additional E. core from a laboratory colony. […] Briefly, brains dissected from butterflies stored at -80°C or recta from locusts were homogenized (individually or pooled) with an all glass grinder (Wheaton) in deionized water, frozen at -80°C, freeze-dried, and stored frozen until use. For in vitro assays, lyophilisates were dissolved in water, sonicated in an ultrasonic bath, and centrifuged to remove undissolved matter. All cardiac glycosides were tested at least with three biological replicates of Na^+/K^+-ATPase (i.e., Na^+/K^+-ATPase from genetically different specimens or pools of specimens).
(§2) Means of duplicate determinations (i.e., technical replicates) were used as data points. In consequence, each data point of a dose–response curve is the mean of at least three biological replicates based on two technical replicates, each. […] Here, technical replicates collected on the same 96-well plate were averaged and used as data points.
(§3) Stock solutions of cardiac glycosides, as well as pregnane glycosides, were prepared from crystalline compounds in DMSO. While concentrations of all other compounds were based on mass, calactin, and calotropin stock solutions were adjusted with HPLC using digitoxin as a reference.
(§4) Pairwise statistical comparisons of dose-response curves were carried out using the “compare datasets” option in OriginPro, which is based on an F-Test evaluating if the two curves are identical. Correlation analyses using log10-transformed IC50 values was also carried out with OriginPro. […] To analyze relative selectivity without a reference, we also plotted the fold differences between the IC50 values of individual cardenolides for non-adapted and adapted insect Na^+/K^+-ATPase and compared them to mammalian (lamb) Na^+/K^+-ATPase (Figure 2).

[1] = target: D. plexippus-Na^+/K^+-ATPase (Danaus plexippus, UniProt K0G7C4); assay: In vitro inhibition assay of D. plexippus Na+/K+-ATPase (phosphate release); conditions: for inhibition of D. plexippus Na^+/K^+-ATPase compared to ouabain: DP, F-test comparison of entire dose-response curves with ouabain; for fold difference between IC50 values, non-adapted (E. core/S. gregaria) vs adapted (D. plexippus) insect Na^+/K^+-ATPase: Figure 2, last number, S. gregaria values used for ouabain and digitoxigenin; for IC50: read-out: IC50 D. plexippus- Na^+/K^+-ATPase, Na+/K+-ATPase extracted from butterfly brains
Procedure: as §1, §2, §3, §4

[2] = target: S. gregaria-Na^+/K^+-ATPase (Schistocerca gregaria, UniProt A0A8E5JSN5)
Procedure: as §1, §2, §3, §4

lamb Na^+/K^+-ATPase = assay: Fold differences of IC50 between lamb and insect Na+/K+-ATPases; conditions: lamb IC50 inferred from ref Paula et al., 2005
Procedure: as §4

[3] = SG; F-test comparison of entire dose-response curves with ouabain
[4] = read-out: IC50 S. gregaria- Na^+/K^+-ATPase; Na+/K+-ATPase extracted from locust recta

S. gregaria-Na^+/K^+-ATPase, sequence (A0A8E5JSN5 1-1039): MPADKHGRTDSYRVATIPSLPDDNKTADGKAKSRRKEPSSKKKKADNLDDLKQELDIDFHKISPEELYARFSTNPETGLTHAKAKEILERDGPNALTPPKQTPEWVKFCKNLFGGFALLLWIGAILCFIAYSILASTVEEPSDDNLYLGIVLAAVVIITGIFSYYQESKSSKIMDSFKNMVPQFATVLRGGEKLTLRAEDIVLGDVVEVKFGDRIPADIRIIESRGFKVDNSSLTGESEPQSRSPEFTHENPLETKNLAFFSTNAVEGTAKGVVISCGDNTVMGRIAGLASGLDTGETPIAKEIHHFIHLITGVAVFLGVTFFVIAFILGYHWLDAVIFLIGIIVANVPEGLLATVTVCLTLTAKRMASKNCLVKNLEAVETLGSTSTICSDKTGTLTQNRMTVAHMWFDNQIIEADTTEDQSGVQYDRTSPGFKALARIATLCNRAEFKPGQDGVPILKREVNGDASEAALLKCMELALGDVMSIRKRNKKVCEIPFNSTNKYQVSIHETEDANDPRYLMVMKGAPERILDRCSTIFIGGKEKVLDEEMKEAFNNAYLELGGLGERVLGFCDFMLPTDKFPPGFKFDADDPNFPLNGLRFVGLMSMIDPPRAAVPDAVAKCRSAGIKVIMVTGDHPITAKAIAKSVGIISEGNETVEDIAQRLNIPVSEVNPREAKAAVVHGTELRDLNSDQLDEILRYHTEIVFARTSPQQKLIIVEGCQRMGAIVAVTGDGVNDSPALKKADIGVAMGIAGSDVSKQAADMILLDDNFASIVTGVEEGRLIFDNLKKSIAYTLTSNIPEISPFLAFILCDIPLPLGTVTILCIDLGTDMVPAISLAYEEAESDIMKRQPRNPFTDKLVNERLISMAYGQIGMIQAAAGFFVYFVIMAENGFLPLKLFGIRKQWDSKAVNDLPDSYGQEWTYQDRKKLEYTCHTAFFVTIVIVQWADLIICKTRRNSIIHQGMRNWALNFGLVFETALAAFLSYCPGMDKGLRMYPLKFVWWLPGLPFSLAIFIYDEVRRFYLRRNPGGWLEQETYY
D. plexippus-Na^+/K^+-ATPase, sequence (K0G7C4 1-1009): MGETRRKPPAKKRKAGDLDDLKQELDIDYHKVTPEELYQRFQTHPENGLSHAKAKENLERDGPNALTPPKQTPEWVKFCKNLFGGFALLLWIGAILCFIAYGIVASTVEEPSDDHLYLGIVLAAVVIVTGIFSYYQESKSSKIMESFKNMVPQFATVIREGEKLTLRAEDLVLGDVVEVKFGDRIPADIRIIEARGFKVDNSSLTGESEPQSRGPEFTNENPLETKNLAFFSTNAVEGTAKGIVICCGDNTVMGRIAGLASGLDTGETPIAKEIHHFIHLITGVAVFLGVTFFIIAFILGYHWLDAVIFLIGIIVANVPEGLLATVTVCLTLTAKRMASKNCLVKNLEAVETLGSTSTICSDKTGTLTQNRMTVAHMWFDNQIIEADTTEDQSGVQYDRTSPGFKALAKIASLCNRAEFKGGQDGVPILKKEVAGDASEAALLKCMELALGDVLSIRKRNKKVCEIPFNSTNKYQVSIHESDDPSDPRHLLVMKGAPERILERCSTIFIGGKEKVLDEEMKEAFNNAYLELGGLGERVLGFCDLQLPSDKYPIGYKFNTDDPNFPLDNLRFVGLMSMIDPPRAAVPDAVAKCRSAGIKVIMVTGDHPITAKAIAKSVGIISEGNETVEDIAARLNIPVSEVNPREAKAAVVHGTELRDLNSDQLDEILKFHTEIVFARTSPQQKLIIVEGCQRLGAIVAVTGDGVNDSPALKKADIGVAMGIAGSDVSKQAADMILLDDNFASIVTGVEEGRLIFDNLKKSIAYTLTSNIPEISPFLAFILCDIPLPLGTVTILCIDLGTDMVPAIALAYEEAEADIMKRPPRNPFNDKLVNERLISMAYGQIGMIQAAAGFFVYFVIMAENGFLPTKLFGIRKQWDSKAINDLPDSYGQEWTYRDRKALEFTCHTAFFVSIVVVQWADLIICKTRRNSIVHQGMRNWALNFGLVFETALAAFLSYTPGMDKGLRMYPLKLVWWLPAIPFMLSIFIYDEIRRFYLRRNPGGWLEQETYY
E. core-Na^+/K^+-ATPase, sequence (A0A5C0C9F5 1-1013): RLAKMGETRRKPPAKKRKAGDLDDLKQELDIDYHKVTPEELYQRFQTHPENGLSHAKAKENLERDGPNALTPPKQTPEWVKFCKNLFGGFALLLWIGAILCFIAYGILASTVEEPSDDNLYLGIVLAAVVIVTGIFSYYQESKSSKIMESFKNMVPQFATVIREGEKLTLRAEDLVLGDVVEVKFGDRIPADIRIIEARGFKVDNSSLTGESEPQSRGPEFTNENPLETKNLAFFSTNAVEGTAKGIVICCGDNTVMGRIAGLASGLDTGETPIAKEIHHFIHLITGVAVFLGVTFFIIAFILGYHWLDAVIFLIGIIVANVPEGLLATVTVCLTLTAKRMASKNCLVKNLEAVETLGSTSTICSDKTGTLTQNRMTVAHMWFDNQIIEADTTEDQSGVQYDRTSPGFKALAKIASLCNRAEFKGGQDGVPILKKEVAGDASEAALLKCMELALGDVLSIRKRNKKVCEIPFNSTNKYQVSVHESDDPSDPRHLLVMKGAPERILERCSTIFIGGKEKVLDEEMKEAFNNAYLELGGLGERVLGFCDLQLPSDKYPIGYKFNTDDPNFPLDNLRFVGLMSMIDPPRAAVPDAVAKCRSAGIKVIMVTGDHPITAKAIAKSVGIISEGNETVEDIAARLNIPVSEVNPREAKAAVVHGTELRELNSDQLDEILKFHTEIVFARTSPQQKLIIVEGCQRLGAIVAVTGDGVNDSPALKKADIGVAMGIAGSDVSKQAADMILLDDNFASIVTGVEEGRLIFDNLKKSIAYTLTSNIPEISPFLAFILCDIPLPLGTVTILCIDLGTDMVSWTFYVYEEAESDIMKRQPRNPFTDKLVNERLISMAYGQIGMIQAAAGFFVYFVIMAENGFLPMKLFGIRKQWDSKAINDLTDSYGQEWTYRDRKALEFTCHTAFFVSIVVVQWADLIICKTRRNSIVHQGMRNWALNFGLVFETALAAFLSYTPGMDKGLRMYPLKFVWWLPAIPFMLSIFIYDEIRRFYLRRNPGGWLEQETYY

| Structure (SMILES) | inhibition of E. core Na^+/K^+-ATPase compared to ouabain (E. core-Na^+/K^+-ATPase) | IC50 (E. core-Na^+/K^+-ATPase) | inhibition of D. plexippus Na^+/K^+-ATPase compared to ouabain [1] | fold difference between IC50 values, non-adapted (E. core/S. gregaria) vs adapted (D. plexippus) insect Na^+/K^+-ATPase [1] | IC50 [1] | IC50 ([2]; Na+/K+-ATPase extracted from locust recta; read-out: IC50 S. gregaria- Na^+/K^+-ATPase) | inhibition of S. gregaria Na^+/K^+-ATPase compared to ouabain [2, 3] | inhibition by glycoside relative to corresponding genin (strophanthidin) on D. plexippus-Na^+/K^+-ATPase ([1]; cymarin vs strophanthidin) | fold difference between IC50 values, lamb vs adapted insect (D. plexippus) Na^+/K^+-ATPase (lamb Na^+/K^+-ATPase; Figure 2, first number) | fold difference between IC50 values, lamb vs non-adapted insect (E. core/S. gregaria) Na^+/K^+-ATPase (lamb Na^+/K^+-ATPase; Figure 2, second number) | IC50 [2, 4] |
| --- | --- | --- | --- | --- | --- | --- | --- | --- | --- | --- | --- |
| C[C@@H]1C[C@@H](O)[C@]2(O)O[C@@H]3C[C@@]4(C=O)[C@@H](CC[C@@H]5[C@@H]4CC[C@]4(C)[C@@H](C6=CC(=O)OC6)CC[C@]54O)C[C@H]3O[C@@H]2O1 [calactin] | more potently than ouabain; also recorded: > ouabain; F2,7 = 496.50, p < 0.001 | 0.092 µM | more potently than ouabain; also recorded: > ouabain; F2,7 = 4706.35, p < 0.001 | 23 x | 2.15 µM | – | – | – | – | – | – |
| C[C@@H]1C[C@H](O)[C@]2(O)O[C@@H]3C[C@@]4(C=O)[C@@H](CC[C@@H]5[C@@H]4CC[C@]4(C)[C@@H](C6=CC(=O)OC6)CC[C@]54O)C[C@H]3O[C@@H]2O1 [calotropin] | > ouabain; F2,7 = 54.31, p < 0.001 | 0.323 µM | > ouabain; F2,7 = 154.4, p < 0.001 | 17 x | 5.36 µM | – | – | – | – | – | – |
| CO[C@H]1C[C@H](O[C@H]2CC[C@]3(C=O)[C@H]4CC[C@]5(C)[C@@H](C6=CC(=O)OC6)CC[C@]5(O)[C@@H]4CC[C@]3(O)C2)O[C@H](C)[C@H]1O [cymarin] | – | – | > ouabain; F2,6 = 514.53, p < 0.001 | 21 x | 6.99 µM | 0.334 µM | > ouabain; F2,6 = 6.37, p = 0.03 | ninefold | 36 x | 2 x | – |
| C[C@]12CC[C@H](O)C[C@H]1CC[C@@H]1[C@@H]2CC[C@]2(C)[C@@H](C3=CC(=O)OC3)CC[C@]12O [digitoxigenin] | < ouabain; F2,6 = 180.27, p < 0.001 | 4.12 µM | > ouabain; F2,6 = 54.05, p < 0.001 | – | 24.8 µM | – | < ouabain; F2,6 = 17.5, p = 0.003 | – | – | – | 2.73 µM |
| C[C@H]1O[C@@H](O[C@H]2[C@@H](O)C[C@H](O[C@H]3[C@@H](O)C[C@H](O[C@H]4CC[C@@]5(C)[C@H](CC[C@@H]6[C@@H]5CC[C@]5(C)[C@@H](C7=CC(=O)OC7)CC[C@]65O)C4)O[C@@H]3C)O[C@@H]2C)C[C@H](O)[C@@H]1O [digitoxin, reference compound] | – | – | > ouabain; F2,6 = 116.84, p < 0.001 | – | 14.8 µM | – | = ouabain; F2,6 = 5.07, p = 0.05 | – | – | – | 1.37 µM |
| C[C@]12CC[C@H](O)C[C@H]1CC[C@@H]1[C@@H]2C[C@@H](O)[C@]2(C)[C@@H](C3=CC(=O)OC3)CC[C@]12O [digoxigenin] | – | – | < ouabain; F2,6 = 30.1, p < 0.001 | – | 379 µM | – | < ouabain; F2,6 = 151.91, p < 0.001 | – | – | – | 11.8 µM |
| C[C@@H]1O[C@@H](O[C@H]2CC[C@]3(C=O)[C@H]4CC[C@]5(C)[C@@H](c6ccc(=O)oc6)CC[C@]5(O)[C@@H]4CC[C@]3(O)C2)[C@H](O)[C@H](O)[C@H]1O[C@@H]1O[C@H](CO)[C@@H](O)[C@H](O)[C@H]1O [hellebrin] | – | – | > ouabain; F2,6 = 1420.98, p < 0.001 | – | 0.842 µM | – | – | – | – | – | – |
| C[C@]12CC[C@H]3[C@@H](CC[C@]4(O)C[C@@H](O)CC[C@]34C=O)[C@@]1(O)CC[C@@H]2C1=CC(=O)OC1 [strophanthidin] | – | – | > ouabain; F2,6 = 9.41, p = 0.01 | – | 64.8 µM | – | – | – | – | – | – |
